{"source": "paper PMC3814675", "about": "“Structures of B-Lymphotropic Polyomavirus VP1 in Complex with Oligosaccharide Ligands” (PLoS Pathogens, 2013)", "key": {"LPyV VP1 [1]": {"target": "T1, LPyV VP1 (B-lymphotropic polyomavirus, UniProt P04010)", "T1 construct": "VP1 residues 28-301 (27 N-terminal and 66 C-terminal residues truncated), pET15b, E. coli BL21(DE3); His-tag cut with thrombin for crystals leaving GSHM (tag kept for glycan array); unassembled pentamer", "T1 sequence (P04010 29-302)": "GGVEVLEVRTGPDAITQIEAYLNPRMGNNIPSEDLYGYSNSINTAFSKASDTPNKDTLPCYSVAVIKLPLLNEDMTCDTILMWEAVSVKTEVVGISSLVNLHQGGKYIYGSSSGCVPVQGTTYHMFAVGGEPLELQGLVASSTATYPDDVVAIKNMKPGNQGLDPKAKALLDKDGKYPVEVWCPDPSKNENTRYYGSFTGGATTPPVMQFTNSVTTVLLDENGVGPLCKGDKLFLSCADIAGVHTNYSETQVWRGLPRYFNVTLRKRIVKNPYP", "assay": "X-ray crystal structure (soaked crystals), […] Å", "assay_type": "binding", "conditions": "40 mM ligand soak 10 min, 0.1 M sodium acetate pH 4.8, 0.2 M CaCl2; same cleft as 3SL; also bound on glycan array as lipid-linked probe"}, "LPyV VP1 [2]": {"target": "T1, LPyV VP1", "assay": "X-ray crystal structure (soaked crystals), […] Å", "assay_type": "binding", "conditions": "40 mM ligand soak 45 min, 0.1 M sodium acetate pH 4.8, 0.2 M CaCl2; outer-surface sialic acid cleft between two VP1 monomers; also bound on glycan array as lipid-linked probe"}, "[3]": {"target": "the molecule itself", "assay": "crystal structure; unliganded LPyV VP1 and crystals soaked with 3SL or 3SLN; vapor diffusion against isopropanol, 0.1 M sodium acetate pH 4.8, 0.2 M calcium chloride; two VP1 pentamers in the asymmetric unit"}}}
{"molecule": "CC(=O)N[C@H]1[C@H]([C@H](O)[C@H](O)CO)O[C@@](O[C@H]2[C@@H](O)[C@@H](CO)O[C@@H](O[C@H]3[C@H](O)[C@@H](NC(C)=O)C(O)O[C@@H]3CO)[C@@H]2O)(C(=O)O)C[C@@H]1O", "note": "(stereo partly drawn) [3SLN, Neu5Ac-α2,3-Gal-β1,4-GlcNAc]", "values": [{"measurement": "X-ray crystal structure (soaked crystals), 1.75 Å", "setting": "LPyV VP1 [1]", "result": "4MBY (complex with 3SL) and 4MBZ (complex with 3SLN)"}]}
{"molecule": "CC(=O)N[C@H]1[C@H]([C@H](O)[C@H](O)CO)O[C@@](O[C@H]2[C@@H](O)[C@@H](CO)O[C@@H](O[C@H]3[C@H](O)[C@@H](O)C(O)O[C@@H]3CO)[C@@H]2O)(C(=O)O)C[C@@H]1O", "note": "(stereo partly drawn) [3SL, Neu5Ac-α2,3-Gal-β1,4-Glc]", "values": [{"measurement": "X-ray crystal structure (soaked crystals), 1.48 Å", "setting": "LPyV VP1 [2]", "result": "entry codes 4MBX (unliganded LPyV VP1), 4MBY (complex with 3SL) and 4MBZ (complex with 3SLN)"}]}
{"molecule": "B-Lymphotropic Polyomavirus (LPyV) VP1 pentamer, amino acids 28-301 (domain or fragment, non-native amino acids left at the N-terminus after thrombin cleavage of the His-tag; Major capsid protein VP1 of B-Lymphotropic Polyomavirus, K38 strain, amino acids 28-301 (truncations of 27 and 66 residues at the N- and C-termini); Cannot assemble into capsids because of the truncations; The form used for crystals had the His-tag cleaved; the glycan array used the His-tagged form (no …)) GSHMKGGVEVLEVRTGPDAITQIEAYLNPRMGNNIPSEDLYGYSNSINTAFSKASDTPNKDTLPCYSVAVIKLPLLNEDMTCDTILMWEAVSVKTEVVGISSLVNLHQGGKYIYGSSSGCVPVQGTTYHMFAVGGEPLELQGLVASSTATYPDDVVAIKNMKPGNQGLDPKAKALLDKDGKYPVEVWCPDPSKNENTRYYGSFTGGATTPPVMQFTNSVTTVLLDENGVGPLCKGDKLFLSCADIAGVHTNYSETQVWRGLPRYFNVTLRKRIVKNPY", "values": [{"measurement": "stoichiometry N", "setting": "[3]", "result": 5}]}
